Results from patent EP0394983A2, “Anthracycline derivatives with cytostatic activity” (priority 1989, dated 1990).
Values after ≈ are worked out from the molar mass of the structure shown. Where two headings read alike, the source gives them in different places.

Tests used:
[1] = test system: L1210 Leukämiezellen; test: Colony formation of L1210 leukaemia cells in soft agar (cytotoxicity in vitro); type: cell-based, Maus; settings: Mus musculus
Description: Die zytostatische Wirksamkeit der erfindungsgemäßen Verbindungen wurde anhand von L1210 Leukämiezellen der Maus getestet. Hierzu wurde die Koloniebildung von L1210 Leukämiezellen in Agarplatten herangezogen. Diese Methode dient zum Nachweis des Einflusses der Testsubstanzen auf das Wachstumsverhalten der Zellen über 1 Stunde oder über mehrere Generationen. Bei einer Zellzykluszeit von 10-12 Stunden werden dabei in der Testzeit von 7 Tagen etwa 14 aufeinanderfolgende Generationen beobachtet. Die erfindungsgemäßen zytostatisch wirksamen Substanzen bewirken in diesem Test eine Reduktion der zu beobachtenden Koloniezahl gegenüber einer unbehandelten Kontrollprobe.
Verfahrensweise zur Ermittlung der Koloniebildung von L1210 Leukämiezellen in Soft-Agar
500 Leukämiezellen pro Platte wurden mit unterschiedlichen Konzentrationen der Testsubstanz 1 Stunde bei 37°C inkubiert. Anschließend wurden die Zellen zweimal mit McCoy5A-Medium gewaschen und schließlich in Petrischalen nach Zugabe von 0,3 % Agar ausgegossen. Kontrollen wurden lediglich mit frischem Medium inkubiert. Anstelle der einstündigen Inkubation wurden in manchen Fällen unterschiedliche Konzentrationen und Testsubstanzen der oberen Agarschicht zugemischt, um so eine kontinuierliche Exposition der Zellen über die gesamte Inkubationszeit zu erreichen. Nach Erstarren des Agars wurden die Platten im Brutschrank 7 Tage bei 37°C inkubiert (5 Vol.-% CO₂, 95 % relative Luftfeuchtigkeit). Anschließend wurde die Zahl der entstandenen Kolonien mit einem Durchmesser von mehr als 60 µm gezählt. Die Ergebnisse wurden angegeben als Koloniezahl in behandelten Agarplatten in Prozent der unbehandelten Kontrolle. Aus der so erhalte nen Dosiswirkungskurve wurde die IC₅₀ als Maß für die Wirksamkeit der Substanz ermittelt. Die Ergebnisse für die hier beschriebenen Verbindungen im Vergleich zu Adriamycin sind in Tabelle 1 zusammengefaßt.

[2] = Stability under weakly acidic conditions (qualitative statement); type: physicochemical; settings: unter schwach sauren Bedingungen
[3] = L1210, 168 h, continuous exposure over the whole incubation time (7 days, 37°C), substance mixed into upper agar layer, colony count vs untreated control, read-out: Dauerinku-bation IC50
[4] = L1210, 1 h incubation at 37°C, cells washed, then 7 days in agar, colony count vs untreated control, read-out: 1 h-Inku-bation IC50

Structure (SMILES)	IC50 [1, 3]	IC50 [1, 4]	IC50 ([1]; L1210, 168 h, read-out: Dauerinku-bation IC50)	IC50 ([1]; L1210, read-out: 1 h-Inku-bation IC50)	Stabilität [2]
CC[C@@]1(O)C[C@H](O[C@H]2C[C@H](N(C)CCNCCc3c[nH]cn3)[C@H](O)[C@H](C)O2)c2c(O)c3c(c(O)c2[C@H]1O)C(=O)c1cccc(O)c1C3=O [Verbindung 4, 7-0-(3′-N-Histaminoethyl-3′-N-methyl-α-L-daunosaminyl)-β-rhodomycinon]	0.4 µg/mL (≈ 0.6 µM)	1.2 µg/mL (≈ 1.8 µM)			
CC[C@@]1(O)C[C@H](O[C@H]2C[C@H](N(C)CCN(C)C)[C@H](O)[C@H](C)O2)c2c(O)c3c(c(O)c2[C@H]1O)C(=O)c1cccc(O)c1C3=O [Verbindung 2, 7-0-(3′-N-Dimethylaminoethyl-3′-N-methyl-α-L-,daunosaminyl)-β-rhodomycinon]	0.033 µg/mL (≈ 0.0549 µM)	0.12 µg/mL (≈ 0.2 µM)			
CC[C@@]1(O)C[C@H](O[C@H]2C[C@H](N(C)CCN(C)CCNC)[C@H](O)[C@H](C)O2)c2c(O)c3c(c(O)c2[C@H]1O)C(=O)c1cccc(O)c1C3=O [Verbindung 3, 7-0-(3′-N-(N,N′-Dimethyl-ethylendiaminoethyl)-3′-N-methyl-α-L-daunosaminyl)-β-rhodomycinon]	0.1 µg/mL (≈ 0.155 µM)	0.6 µg/mL (≈ 0.932 µM)			
CC[C@@]1(O)C[C@H](O[C@H]2C[C@H](N(C)CCCl)[C@H](O)[C@H](C)O2)c2c(O)c3c(c(O)c2[C@H]1O)C(=O)c1cccc(O)c1C3=O [Verbindung 1, 7-0-(3′-N-Chlorethyl-3′-N-methyl-α-L-daunosaminyl)-β-rhodomycinon]			0.03 µg/mL (≈ 0.0507 µM)	0.11 µg/mL (≈ 0.186 µM)	relativ stabil
